In one data set the target is T1, hα7-wt nAChR (Homo sapiens, UniProt P36544).
T1 construct: expressed in transfected cells
Briefly: Ca2+ flux imaging (FDSS) (Protocol B), PAM activity with choline as agonist. The format is cell-based. Particulars: for EC50: "<5" = no top plateau at maximal concentration; for Emax: read-out: % efficacy. As for the experimental part:
• Hanks buffered saline solution (HBSS, Invitrogen, Belgium), supplemented with 10 mM HEPES (Invitrogen, Belgium), CaCl2 to a final concentration of 5 mM, 0.1% Bovine serum albumin (Sigma-Aldrich NV, Belgium). b) Calcium-Sensitive Dye—Fluo-4AM • Fluo-4AM (Molecular Probes, USA) was dissolved in DMSO containing 10% Pluronic acid (Molecular Probes, USA) to give a stock solution which was diluted in assay buffer supplemented with 5 mM probenicid (Sigma, Aldrich NV, Belgium) to give a final concentration of 2 μM. c) 384-Well Plates • Black 384 well plate black/clear plates, PDL pre-coated (Corning, Incorporated, USA) d) Calcium Flux Measurement
A Functional drug screening system (FDSS, Hamamatsu) was used to measure intracellular free-calcium flux signals.
Monolayers of hα7-wt nAChR-expressing cells were grown in multi-well plates, in particular black-sided, transparent bottomed 384 well plates coated with poly-D-lysine for 24 hours prior to loading with a fluorescent calcium indicator, in a particular embodiment loading with fluo-4AM for up to 120 minutes.
PAM activity was detected in real time by applying the compounds to be tested to the loaded cells along with a α7 nicotinic receptor agonist during constant monitoring of cellular fluorescence in a FDSS. Compounds giving peak fluorescent responses greater than the response due to agonist alone, were considered to be α7 nAChR PAM's. In a particular embodiment, the α7 nicotinic receptor agonist was choline, a more particular embodiment choline applied at a sub-maximal concentration of 100 μM. In a further setting of the present invention the compounds to be tested were applied prior to the α7 nicotinic receptor agonist, in a particular embodiment up to 10 minutes prior to the agonist.
A control response to choline was calculated on each plate from the difference in peak in fluorescence in wells receiving either choline or assay buffer alone. Compounds of the present invention were tested at a concentration range from 0.01 μM to 30 μM. Compounds were considered to have an interesting activity when they potentiated the choline signal at least with 500% when tested at a concentration of 30 μM (the efficacy of 100 μM choline was defined as 100% in the absence of a PAM). The compounds also have a potentiating effect on the response to choline when measured by whole-cell patch clamp electrophysiology in GH4C1 cells stably over-expressing the human wild-type α7 receptor.

T1 sequence (P36544 23-502): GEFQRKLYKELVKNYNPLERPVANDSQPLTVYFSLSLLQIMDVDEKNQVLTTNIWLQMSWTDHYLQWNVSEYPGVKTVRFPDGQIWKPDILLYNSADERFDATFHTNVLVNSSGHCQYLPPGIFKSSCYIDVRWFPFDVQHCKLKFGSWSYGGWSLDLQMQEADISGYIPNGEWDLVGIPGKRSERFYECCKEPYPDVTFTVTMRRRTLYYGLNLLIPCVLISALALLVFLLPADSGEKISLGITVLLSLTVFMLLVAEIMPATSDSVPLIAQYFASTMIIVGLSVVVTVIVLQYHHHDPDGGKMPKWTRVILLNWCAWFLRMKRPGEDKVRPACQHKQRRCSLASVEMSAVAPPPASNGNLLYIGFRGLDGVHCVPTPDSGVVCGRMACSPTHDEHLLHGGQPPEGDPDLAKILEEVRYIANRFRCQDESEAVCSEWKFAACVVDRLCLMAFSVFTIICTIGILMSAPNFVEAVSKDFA

Compound `CNC(=O)Cn1nc(Nc2ccc(F)c(C(F)(F)F)c2)nc1-c1ccnc(C)c1` [Compound 107] showed a melting point of 265 °C. Also, on hα7-wt nAChR, the EC50 was 1000 nM.

`CNC(=O)Cn1nc(Nc2ccc(F)c(C(F)(F)F)c2)nc1-c1ccc(C)nc1` [Compound 108] came in with a melting point of 247.1 °C. Besides, the EC50 on hα7-wt nAChR is 2510 nM.

With `CNC(=O)Cn1nc(Nc2ccc(F)c(C(F)(F)F)c2)nc1-c1ccncc1OC` [Compound 109], the melting point was found to be 234.8 °C. Also, the EC50 at hα7-wt nAChR was 3980 nM.

Consider `CNC(=O)Cn1nc(Nc2ccc(F)c(C(F)(F)F)c2)nc1-c1ccc(OC)nc1` [Compound 110], for which the melting point is 255.1 °C. Further, the EC50 on hα7-wt nAChR was 126 nM.

Regarding `CCOc1ccc(-c2nc(Nc3ccc(F)c(C(F)(F)F)c3)nn2CC(=O)NC)cn1` [Compound 111], the melting point turned out to be 236.2 °C. Also, the EC50 at hα7-wt nAChR was 251 nM.

Take `CNC(=O)Cn1nc(Nc2ccc(F)c(C(F)(F)F)c2)nc1-c1ccnc(NC)c1` [Compound 112]: the melting point amounted to 259.6 °C. Moreover, the EC50 on hα7-wt nAChR was 794 nM.

As for `CNC(=O)Cn1nc(Nc2ccc(F)c(C(F)(F)F)c2)nc1-c1ccc(NC)nc1` [Compound 113], the melting point came to 256.6 °C. Besides, the EC50 at hα7-wt nAChR is 2000 nM.

`CNC(=O)Cn1nc(Nc2ccc(F)c(C(F)(F)F)c2)nc1-c1ccncc1NC` [Compound 114] came in with a melting point of 260.8 °C. Moreover, the EC50 on hα7-wt nAChR is 631 nM.

`CNC(=O)Cn1nc(Nc2ccc(F)c(C(F)(F)F)c2)nc1-c1ccc(NCCOC)nc1` [Compound 115] displayed a melting point of 207.1 °C. Also, the EC50 at hα7-wt nAChR is over 10000 nM.

With `CNC(=O)Cn1nc(Nc2ccc(F)c(C(F)(F)F)c2)nc1-c1ccncc1F` [Compound 116], the melting point came out at 249.5 °C. At hα7-wt nAChR, the EC50 was 1260 nM.

For the compound `CNC(=O)Cn1nc(Nc2ccc(F)c(C(F)(F)F)c2)nc1-c1ccncc1Cl` [Compound 117], the melting point came to 199.2 °C. At hα7-wt nAChR, the EC50 was 1000 nM.

`CCNC(=O)Cn1nc(Nc2ccc(F)c(C(F)(F)F)c2)nc1-c1ccncc1C` [Compound 118] gave a melting point of 238.6 °C. Further, the EC50 on hα7-wt nAChR is 794 nM.

`COc1ccc(-c2nc(Nc3ccc(F)c(C(F)(F)F)c3)nn2CC(=O)NC(C)C)c(OC)c1` [Compound 119] returned a melting point of 215 to 219.2 °C. Also, on hα7-wt nAChR, the EC50 is 794 nM and the Emax came out at 974%.

Compound `Cc1ccncc1-c1nc(Nc2ccc(F)c(C(F)(F)F)c2)nn1CC(=O)NC1CC1` [Compound 120] displayed a melting point of 251 °C. In addition, at hα7-wt nAChR, the EC50 was 3980 nM.

Turning to `COc1ncccc1-c1nc(Nc2ccc(F)c(C(F)(F)F)c2)nn1CC(=O)NC1CC1` [Compound 121], the melting point was determined as 242.4 °C. For the same compound, the concentration giving a half-maximal response (EC50) on hα7-wt nAChR was 2510 nM.

`CC(C)(O)c1cc(-c2nc(Nc3ccc(F)c(C(F)(F)F)c3)nn2CC(=O)NC2CC2)ccn1` [Compound 122] yielded a melting point of 174 °C. At hα7-wt nAChR, the EC50 was 2000 nM and the Emax was 988%.

Compound `CC(=O)c1cc(-c2nc(Nc3ccc(F)c(C(F)(F)F)c3)nn2CC(=O)NC2CC2)ccn1` [Compound 123] displayed a melting point of 213.2 °C. For the same compound, the EC50 at hα7-wt nAChR is 1260 nM.

Take `Cc1cc(-c2nc(Nc3ccc(F)c(C(F)(F)F)c3)nn2CC(=O)N2CCCC2)ccn1` [Compound 124]: the melting point amounted to 172.3 °C. Further, at hα7-wt nAChR, the EC50 was 2510 nM.

Take `CN(C)C(=O)CCn1nc(Nc2ccc(F)c(C(F)(F)F)c2)nc1-c1cccnc1` [Compound 125]: the melting point was found to be 190 °C. Besides, at hα7-wt nAChR, the EC50 is 631 nM.

Compound `Cc1ncccc1-c1nc(Nc2ccc(F)c(C(F)(F)F)c2)nn1CCC(=O)N(C)C` [Compound 126] gave a melting point of 171.5 °C. Further, the EC50 on hα7-wt nAChR is 1260 nM.

Consider `Cc1ccc(-c2nc(Nc3ccc(F)c(C(F)(F)F)c3)nn2CCC(=O)N(C)C)cn1` [Compound 127], for which the melting point came out at 185.4 °C. Further, the EC50 at hα7-wt nAChR is 200 nM.

Consider `CCc1ccc(-c2nc(Nc3ccc(F)c(C(F)(F)F)c3)nn2CCC(=O)N(C)C)cn1` [Compound 128], for which the melting point is 177.2 °C. The half-maximal effective concentration (EC50) at hα7-wt nAChR is 50.1 nM.

In the case of `CC(C)c1ccc(-c2nc(Nc3ccc(F)c(C(F)(F)F)c3)nn2CCC(=O)N(C)C)cn1` [Compound 129], the melting point is 176.3 °C. At hα7-wt nAChR, the EC50 was 39.8 nM.

Take `CCNc1ccc(-c2nc(Nc3ccc(F)c(C(F)(F)F)c3)nn2CCC(=O)N(C)C)cn1` [Compound 130]: the melting point came to 201.1 °C. In addition, on hα7-wt nAChR, the EC50 was 100 nM.

The compound `COCCNc1ccc(-c2nc(Nc3ccc(F)c(C(F)(F)F)c3)nn2CCC(=O)N(C)C)cn1` [Compound 131] displayed a melting point of 167.7 °C. Besides, the EC50 on hα7-wt nAChR was 398 nM.

Consider `CN(C)C(=O)CCn1nc(Nc2ccc(F)c(C(F)(F)F)c2)nc1-c1ccc(C2CC2)nc1` [Compound 132], for which the melting point came to 177.3 °C. For the same compound, on hα7-wt nAChR, the EC50 was 15.8 nM.

Take `CN(C)C(=O)CCn1nc(Nc2ccc(F)c(C(F)(F)F)c2)nc1-c1ccc(NC2CC2)nc1` [Compound 133]: the melting point was 150.9 °C. For the same compound, at hα7-wt nAChR, the EC50 is 100 nM.

Consider `CN(C)C(=O)CCn1nc(Nc2ccc(F)c(C(F)(F)F)c2)nc1-c1ccnc(NC2CC2)c1` [Compound 134], for which the melting point was found to be 219.8 °C. For the same compound, at hα7-wt nAChR, the concentration giving a half-maximal response (EC50) is 20 nM.

For the compound `CC(C)NC(=O)CCn1nc(Nc2ccc(F)c(C(F)(F)F)c2)nc1-c1ccncc1` [Compound 136], the melting point turned out to be 217.7 °C. The EC50 on hα7-wt nAChR is 3160 nM.

Turning to `CC(=O)NCCn1nc(Nc2ccc(F)c(C(F)(F)F)c2)nc1-c1ccncc1` [Compound 138], the melting point was found to be 174.3 °C. The EC50 at hα7-wt nAChR is over 10000 nM.

In the case of `CCOC(=O)NCCn1nc(Nc2ccc(F)c(C(F)(F)F)c2)nc1-c1ccnc(C)c1` [Compound 139], the melting point amounted to 160.5 °C. Besides, the EC50 at hα7-wt nAChR was 1000 nM.

Turning to `CCOC(=O)NCCn1nc(Nc2ccc(F)c(C(F)(F)F)c2)nc1-c1ccnc(C2CC2)c1` [Compound 140], the melting point came out at 147.2 °C. Besides, the EC50 at hα7-wt nAChR was 631 nM.

Compound `Cc1nc(CCn2nc(Nc3ccc(F)c(C(F)(F)F)c3)nc2-c2ccncc2)no1` [Compound 141] gave a melting point of 140.3 °C. Also, at hα7-wt nAChR, the EC50 was 2510 nM.

In turn, `COc1ccc(Nc2nc(-c3ccncc3)n(CCO)n2)cc1C(F)(F)F` [Compound 143] showed a melting point of 240.4 °C. Further, the EC50 on hα7-wt nAChR is 2000 nM.

As to `COc1ccc(Nc2nc(-c3ccnc(C)c3)n(CCC(=O)N(C)C)n2)cc1C(F)(F)F` [Compound 144], the melting point was 177.2 °C. For the same compound, the EC50 on hα7-wt nAChR was 200 nM.

As for `COc1ccc(Nc2nc(-c3ccncc3Cl)n(CCC(=O)N(C)C)n2)cc1C(F)(F)F` [Compound 145], the melting point is 211.2 °C. The EC50 on hα7-wt nAChR was 200 nM.

For `CNC(=O)Cn1nc(Nc2cc(OC)cc(C(F)(F)F)c2)nc1-c1ccnc(NC)c1` [Compound 146], the melting point is 241.1 °C. At hα7-wt nAChR, the EC50 was 1000 nM.

Regarding `Cc1cc(-c2nc(Nc3cccc(OC(F)(F)F)c3)nn2CC(C)O)ccn1` (stereo not drawn) [Compound 148], the melting point is 130.9 °C. Also, the EC50 on hα7-wt nAChR was 5010 nM.

Take `CNC(=O)Cn1nc(Nc2cccc(OC(F)(F)F)c2)nc1-c1ccncc1NC` [Compound 153]: the melting point stood at 208.6 °C. The EC50 at hα7-wt nAChR is 1580 nM.

Turning to `CNC(=O)Cn1nc(Nc2cccc(OC(F)(F)F)c2)nc1-c1ccncc1F` [Compound 154], the melting point was 192.2 °C. In addition, at hα7-wt nAChR, the EC50 is 3160 nM.

`CNC(=O)Cn1nc(Nc2cccc(OC(F)(F)F)c2)nc1-c1ccc(C2CC2)nc1` [Compound 155]: the melting point worked out at 217 °C. Besides, the half-maximal effective concentration (EC50) at hα7-wt nAChR was 316 nM.

On to `CNC(=O)Cn1nc(Nc2cccc(OC(F)(F)F)c2)nc1-c1ccc2c(c1)OCCO2` [Compound 156], for which the melting point was 185.8 to 191.3 °C. The EC50 on hα7-wt nAChR was 398 nM.

`CNC(=O)Cn1nc(Nc2cccc(OC(F)(F)F)c2)nc1-c1ccc2c(c1)OCCN2C` [Compound 157] gave a melting point of 222.4 °C. The EC50 on hα7-wt nAChR is 398 nM.

Compound `CCNC(=O)Cn1nc(Nc2cccc(OC(F)(F)F)c2)nc1-c1ccc2c(c1)OCCO2` [Compound 158] registered a melting point of 188.7 °C. Besides, the EC50 on hα7-wt nAChR was 158 nM.

Take `COc1ccc(-c2nc(Nc3cccc(OC(F)(F)F)c3)nn2CC(=O)NC(C)C)cc1OC` [Compound 159]: the melting point fell in the range of 182.5 to 186.1 °C. Moreover, at hα7-wt nAChR, the EC50 was 794 nM and the Emax stood at 963%.
